Biological target: T1, pS935-LRRK2 (Homo sapiens, UniProt Q5S007)
T1 construct: fresh PBMCs from healthy volunteer donors; endogenous in cells; host or cells: fresh and cryopreserved PBMCs from healthy volunteer donors
Test: pS935-LRRK2 ELISA on freshly isolated PBMCs from healthy volunteers
Format: cell-based
Conditions: increasing concentrations, 1 hour (FIG. 3C)
Experimental: Phosphorylation of LRRK2 at the Ser935 residue by ELISA was assessed. For each sample, the signal corresponding to pS935-LRRK2 was normalized to its corresponding value of total LRRK2 (in ng/ml). Increasing amounts of recombinant human full-length LRRK2 was bound to parallel ELISA plates using the c41-2 clone for capture, and detected using total (N241A; for normalization) or phosphorylated (pS935-LRRK2, UDD2) antibodies (FIG. 3A). […] Freshly isolated PBMCs from healthy volunteers were treated with increasing concentrations of the kinase inhibitor PF-475 for 1 hour, and subjected to pS935-LRRK2 ELISA (FIG. 3C). […] In contrast, in PBMC extracts from carriers of the G2019S mutation, with and without PD, there was a non-significant trend towards lower levels of pS935-LRRK2 compared to healthy controls (FIG. 3E). The values of all G2019S carriers are pooled for comparison against healthy controls (FIG. 3F). Levels of pS935-LRRK2 and various clinical parameters were compared (FIG. 3G). In iPD patients, there was no correlation between pS935-LRRK2 and the motor function scale UPDRS-III (not shown); however, performance on the cognitive function test, MoCA, was negatively correlated with pS935-LRRK2 levels in iPD patients (FIG. 3G; right panel) and healthy controls (FIG. 3G; center panel).

T1 sequence (Q5S007 whole entry): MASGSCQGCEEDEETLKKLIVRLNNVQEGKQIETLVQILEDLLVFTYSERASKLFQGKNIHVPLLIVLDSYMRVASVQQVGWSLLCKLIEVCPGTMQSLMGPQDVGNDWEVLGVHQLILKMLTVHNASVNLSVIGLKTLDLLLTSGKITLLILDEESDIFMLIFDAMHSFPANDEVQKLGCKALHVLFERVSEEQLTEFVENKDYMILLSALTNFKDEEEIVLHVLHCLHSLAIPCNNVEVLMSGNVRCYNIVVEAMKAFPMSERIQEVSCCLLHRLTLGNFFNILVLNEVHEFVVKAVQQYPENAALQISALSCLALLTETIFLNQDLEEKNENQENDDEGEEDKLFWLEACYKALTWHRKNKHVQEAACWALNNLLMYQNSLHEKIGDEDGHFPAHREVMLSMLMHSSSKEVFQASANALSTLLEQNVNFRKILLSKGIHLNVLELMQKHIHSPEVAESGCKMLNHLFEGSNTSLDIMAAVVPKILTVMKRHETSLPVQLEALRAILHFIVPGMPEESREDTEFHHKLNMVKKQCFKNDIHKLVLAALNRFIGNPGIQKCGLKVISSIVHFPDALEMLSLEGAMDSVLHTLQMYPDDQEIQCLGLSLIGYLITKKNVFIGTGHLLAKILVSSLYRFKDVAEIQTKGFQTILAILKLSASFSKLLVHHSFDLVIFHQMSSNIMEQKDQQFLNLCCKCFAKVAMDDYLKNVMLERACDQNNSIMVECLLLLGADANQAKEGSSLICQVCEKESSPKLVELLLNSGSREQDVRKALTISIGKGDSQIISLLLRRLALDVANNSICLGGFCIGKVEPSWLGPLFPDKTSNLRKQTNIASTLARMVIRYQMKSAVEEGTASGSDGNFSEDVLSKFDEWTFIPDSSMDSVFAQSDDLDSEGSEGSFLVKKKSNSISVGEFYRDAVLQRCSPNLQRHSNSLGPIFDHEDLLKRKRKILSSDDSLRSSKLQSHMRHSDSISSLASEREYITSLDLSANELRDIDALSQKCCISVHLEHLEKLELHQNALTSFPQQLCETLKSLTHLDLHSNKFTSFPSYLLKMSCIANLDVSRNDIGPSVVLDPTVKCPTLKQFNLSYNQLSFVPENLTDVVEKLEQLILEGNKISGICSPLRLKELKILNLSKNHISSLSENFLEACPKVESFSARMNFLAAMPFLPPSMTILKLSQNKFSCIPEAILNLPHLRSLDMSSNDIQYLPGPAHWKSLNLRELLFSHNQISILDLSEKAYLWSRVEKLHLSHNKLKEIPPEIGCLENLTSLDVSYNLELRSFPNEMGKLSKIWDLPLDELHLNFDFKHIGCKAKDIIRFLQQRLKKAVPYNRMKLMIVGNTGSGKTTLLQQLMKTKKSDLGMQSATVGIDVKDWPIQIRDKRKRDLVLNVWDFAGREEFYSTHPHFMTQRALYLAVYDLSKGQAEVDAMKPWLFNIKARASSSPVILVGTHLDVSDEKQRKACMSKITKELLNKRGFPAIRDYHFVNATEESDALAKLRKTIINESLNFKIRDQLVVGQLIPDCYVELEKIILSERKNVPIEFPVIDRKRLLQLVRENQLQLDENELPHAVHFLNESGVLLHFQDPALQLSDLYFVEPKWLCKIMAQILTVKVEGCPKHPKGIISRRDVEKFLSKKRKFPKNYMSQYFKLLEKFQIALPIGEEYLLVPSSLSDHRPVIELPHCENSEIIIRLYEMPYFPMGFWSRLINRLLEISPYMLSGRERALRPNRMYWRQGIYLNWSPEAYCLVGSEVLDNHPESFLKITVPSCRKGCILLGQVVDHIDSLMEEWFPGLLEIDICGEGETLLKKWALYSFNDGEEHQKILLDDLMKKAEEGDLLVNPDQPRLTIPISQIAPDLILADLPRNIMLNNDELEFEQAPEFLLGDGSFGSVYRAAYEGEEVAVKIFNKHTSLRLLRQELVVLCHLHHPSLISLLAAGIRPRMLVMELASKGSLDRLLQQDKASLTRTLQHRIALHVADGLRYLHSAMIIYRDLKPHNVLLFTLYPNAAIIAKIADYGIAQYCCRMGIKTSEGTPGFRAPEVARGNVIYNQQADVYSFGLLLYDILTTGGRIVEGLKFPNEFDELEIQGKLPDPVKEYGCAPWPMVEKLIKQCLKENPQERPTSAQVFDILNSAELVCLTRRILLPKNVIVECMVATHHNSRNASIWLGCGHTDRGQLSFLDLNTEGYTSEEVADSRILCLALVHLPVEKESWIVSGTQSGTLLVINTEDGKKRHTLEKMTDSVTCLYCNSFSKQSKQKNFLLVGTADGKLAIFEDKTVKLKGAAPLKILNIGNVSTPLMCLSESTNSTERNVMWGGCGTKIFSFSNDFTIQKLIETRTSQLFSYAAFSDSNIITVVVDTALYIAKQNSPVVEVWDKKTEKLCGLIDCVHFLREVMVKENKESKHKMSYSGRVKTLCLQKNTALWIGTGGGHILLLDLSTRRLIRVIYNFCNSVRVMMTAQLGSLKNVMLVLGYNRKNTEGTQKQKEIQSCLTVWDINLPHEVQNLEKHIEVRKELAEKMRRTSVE

N#Cc1cccc(-c2c[nH]c3ncnc(N4CCOCC4)c23)c1 [PF-475]
phosphorylated LRRK2 (pS935-LRRK2) level: significant dose-dependent loss

Reference: US20230333121A1, “METHODS AND COMPOSITIONS RELATING TO BIOMARKERS FOR NEURODEGENERATIVE DISEASES” (ANACALYPSIS THERAPEUTICS, IKE, priority 2020, published 2023)
